Source: patent US8618082B2, “Lupeol anti-tumor agent and uses thereof” (Wisconsin Alumni Research Foundation, priority 2004, dated 2013)

What was measured:
[1] = system: epidermal ODC protein; assay: TPA-induced epidermal ODC protein expression (western blot); format: in vivo, mouse
Description: FIG. 4. Inhibitory effect of Lupeol on TPA-induced epidermal ODC, iNOS and COX-2 protein expression in CD-1 mice: At different times after treatment, the animals were sacrificed, epidermal protein lysate was prepared, and ODC and COX-2 protein expression were determined. Equal loading of protein was confirmed by stripping the immunoblot and reprobing it for β-actin. The immunoblots shown here are representative of three independent experiments with similar results. The values above each lane indicate relative density of the band normalized to β-actin.
The animals were shaved on the dorsal side of the skin, divided into four groups and treated topically on the shaved area with either 0.4 ml vehicle (acetone), or TPA (3.2 nmol/0.4 ml acetone/animal, v/v), or Lupeol (1 or 2 mg/0.2 ml acetone/animal, w/v) followed 30 min later with TPA (3.2 nmol/0.2 ml acetone/animal). Animals were sacrificed at different times point i.e. 6, 12, 24 and 48 h post TPA treatment. […]
(§1) Epidermis from the whole skin was separated as described earlier (Katiyar et al., 1999) and was homogenized in ice-cold lysis buffer [50 mM Tris-HCl, 150 mM NaCl, 1 mM EGTA, 1 mM EDTA, 20 mM NaF, 100 mM Na3VO4, 0.5% NP-40, 1% Triton X-100, 1 mM PMSF (pH 7.4)] with freshly added protease inhibitor cocktail, Protease Inhibitor Cocktail Set III (Calbiochem, La Jolla, Calif., USA). […] The protein content in the lysates was measured by DC BioRad assay (BioRad Laboratories, Hercules, Calif.) as per the manufacturer's protocol.
For western blot analysis, 40 μg of the protein was resolved over 8-12% polyacrylamide gels and transferred to a nitrocellulose membrane. […] This was followed by incubation with anti-mouse or anti-rabbit secondary antibody horse-radish peroxidase (Amersham Life Sciences, Inc., USA) for 1 h and then washed several times and detected by chemiluminescence ECL kit, (Amersham Life Sciences, Inc., USA) and autoradiography using XAR-5 film obtained from Eastman Kodak Co. (Rochester, N.Y., USA). […]

[2] = system: NFκB-DNA binding activity; assay: NFκB-DNA binding by electrophoretic mobility shift assay (EMSA); format: in vivo; settings: prior application of Lupeol to mouse skin
Description: (b) At different times after treatment, the animals were sacrificed, nuclear lysates were prepared, and DNA binding was determined by […] as described under ‘Materials and Methods’. C1, C2, and C3 refer to inter experimental controls, where C1 represents biotin-EBNA (epistein barr virus nuclear antigen) control DNA, C2 represents Biotin-EBNA control DNA and EBNA extract and C3 represents Biotin-EBNA control DNA and EBNA extract plus 200 fold molar excess of EBNA DNA.
as §1
EMSA for NFκB was performed using Lightshift™ chemiluminescent EMSA kit (Pierce, Rockford, Ill., USA) by following the manufacturer's protocol. […] The biotin end-labeled DNA was detected using streptavidin-horseradish peroxidase conjugate and a chemiluminescent substrate. […]

In the case of C=C(C)[C@@H]1CC[C@]2(C)CC[C@]3(C)[C@H](CC[C@@H]4[C@@]5(C)CC[C@H](O)C(C)(C)[C@@H]5CC[C@]43C)[C@@H]12 [Lupeol, Lup-20(29)-en-3β-ol], the “epidermal ODC protein expression after Lupeol alone” value ([1]; Lupeol alone up to 2 mg/animal) is reported as “without any effect on enzyme level”, the “inhibition of TPA-caused induction of epidermal ODC protein expression (densitometry)” value ([1]; Lupeol-pretreated animals, 1 or 2 mg, all time points) is reported as 50-70% and the “TPA-induced epidermal NFκB DNA binding activity” value [2] is reported as “significantly inhibited”.
